Experimental data from patent publication US8324177B2, “Triterpene compositions and methods for use thereof” (Research Development Foundation, priority 1998, dated 2012).

Tested on: poly (ADP-ribose) polymerase (PARP) cleavage in Jurkat cells
Test: Immunoblot analysis of PARP degradation
Assay type: cell-based, human
Conditions: 100 μM, 1 h pretreatment
Experimental: Apoptosis induced by F035 & D1 was examined by proteolytic cleavage of poly (ADP-ribose) polymerase (PARP). Jurkat cells (2×10^6/ml) were treated with F035 (2 μg/ml) and D1 (2 μg/ml) for different lengths of time. Cell lysates were prepared in buffer containing 20 mM HEPES, 250 mM NaCl, 2 mM EDTA, 0.1% NP-40, 2 μg/ml leupeptin, 2 μg/ml aprotinin, 0.5 μg/ml benzamidine, 1 mM DTT and 1 mM PMSF. Cellular proteins (60 μg/ml) were separated on a 7.5% SDS polyacrylamide gel and electrotransferred onto a nitrocellulose membrane. The membrane was probed first with monclonal anti-PARP antibody (PharMingen) and then with anti-mouse antibody conjugated to horse radish peroxidase (HRPO). Protein bands were detected by chemiluminescense (ECL, Amersham). The extent of cleavage of the 116-kDa PARP into 85-kDa and 41-kDa peptide products was used as a measure of apoptosis (Tewari et al., 1995).

With z-vad fmk the “Effect on F035 induced cleavage of PARP (in words)” value was “completely reversed”.
